From ChEMBL document CHEMBL3576796, “A Broad Anti-influenza Hybrid Small Molecule That Potently Disrupts the Interaction of Polymerase Acidic Protein-Basic Protein 1 (PA-PB1) Subunits” (J Med Chem, 2015) come the findings set out here.

In brackets after ≈: the same amount, converted by molar mass. Activity calls are given as the source filed them. No cut-off for these calls is given here. Bounds are passed on as bounds.

Broadly, the thermodynamic solubility is the concentration in solution at equilibrium with solid. For orientation: EC50 means the midpoint of the concentration-response curve. By CC50 is commonly meant the concentration at which the toxic effect on the cells reaches its halfway point. As a reminder, the IC50 is the concentration that gives 50% inhibition.

The nature of data set [1]: Equilibrium solubility of the compound in phosphate buffer at pH 7.4 after 1 hr. The format is physicochemical.
Data set [2] can be described thus: Permeability of the compound assessed as passive diffusion from donor compartment to acceptor compartment after 18 hrs by PAMPA assay. The settings on record: read-out: Peff. It counts as physicochemical. (In PAMPA a lipid-coated filter parts donor from acceptor wells.)
Data set [3] can be described thus: Permeability of the compound assessed as membrane drug retention after 18 hrs by PAMPA assay. Details: concentration or dose not given beside the values. It counts as physicochemical.
In another data set the test system is Liver microsome. The experiment in a line: Metabolic stability in human liver microsomes assessed as cytochrome-mediated metabolism after 30 mins by HPLC-MS/MS analysis. It counts as ADME. The settings on record: 0.5 h. For orientation: Liver microsomes are vesicles of endoplasmic reticulum, rich in cytochrome P450 enzymes.
Data set [4] deals with Influenza A virus. It counts as functional, organism-based. The conditions noted are these: A/Puerto Rico/8/1934(H1N1), MDCK, 48 h.
Data set [5] in a line: Cytotoxicity against human HEK293T cells assessed as decrease in cell viability by MTT assay. It counts as cell-based, HEK-293T. A general note: Tetrazolium dyes change colour on reduction, which living cells bring about.
Data set [6] in a line: Cytotoxicity against MDCK cells assessed as decrease in cell viability by MTT assay. It counts as cell-based, Canis lupus familiaris. The settings on record: dog.
Data set [7] relates to Influenza A virus. It counts as functional, organism-based. The settings on record: A/Puerto Rico/8/1934(H1N1), MDCK, 48 h. This is another data set of the same source.
Data set [8] is described as follows: Antiviral activity against Influenza A virus A/Solomon Island/3/06 (H1N1) assessed as reduction in plaque formation after 48 hrs by plaque reduction assay. The format is functional, Influenza A virus (A/Solomon Islands/3/2006(H1N1)).
Data set [9] in a line: Antiviral activity against Influenza A virus A/Wisconsin/67/05 (H3N2) assessed as reduction in plaque formation after 48 hrs by plaque reduction assay. The format is functional, Influenza A virus (A/Wisconsin/67/2005(H3N2)).
Data set [10] concerns Influenza B virus. The experiment in a line: Antiviral activity against Influenza B virus B/Lee/40 assessed as reduction in plaque formation after 48 hrs by plaque reduction assay. It counts as functional, organism-based. The conditions noted are these: B/Lee/1940, 48 h.
Data set [11] deals with Influenza B virus. Description: Antiviral activity against Influenza B virus B/Malaysia/2506/04 assessed as reduction in plaque formation after 48 hrs by plaque reduction assay. The conditions noted are these: B/Malaysia/2506/2004, 48 h. It counts as functional.
The test system of data set [12] is Influenza B virus. Description: Antiviral activity against Influenza B virus B/Bangladesh/333/07 assessed as reduction in plaque formation after 48 hrs by plaque reduction assay. It counts as functional, organism-based. The settings on record: B/Bangladesh/333/07, 48 h.
Data set [13] concerns the target PA/PB1 (Influenza A virus (A/Puerto Rico/8/1934(H1N1)), UniProt P03431+P03433).
For data set [14], the system named is Influenza A virus. It counts as functional, organism-based. The conditions noted are these: A/Puerto Rico/8/1934(H1N1), HEK-293T, 50 uM.
The subject of data set [15] is Influenza A virus. It counts as functional, organism-based. The settings on record: A/Puerto Rico/8/1934(H1N1), HEK-293T, 50 uM. This is another data set of the same source.
For data set [16], the system named is Influenza A virus. The format is functional, organism-based. The settings on record: A/Puerto Rico/8/1934(H1N1), HEK-293T, 50 uM. This is another data set of the same source.
Data set [17] deals with Influenza A virus. The format is functional, organism-based. The conditions noted are these: A/Puerto Rico/8/1934(H1N1), HEK-293T, 50 uM. The source holds these as a separate data set.

As to `CCCOc1ccc(C(=O)Nc2nc3n(n2)C(c2ccccc2)C=C(C)N3)cc1` (stereo unspecified), the thermodynamic solubility at 1 h in data set [1] was 13 µg/mL (≈ 33.4 µM). Besides, the Papp at 18 h in data set [2] was determined as 2.93 ×10⁻⁶ cm/s. Besides, the Activity in data set [3] worked out at 41%. In the data set on Liver microsome, the Drug metabolism result is reported as “metabolite_notdetected”. Besides, the EC50 in the data set with Influenza A virus [4] turned out to be 47 µM; in the data set on Influenza A virus [7], 47 µM; in data set [8], 27 µM; in data set [9], 37 µM; in the data set with Influenza B virus [10] it was 51 µM; in the data set with Influenza B virus [11], 32 µM. The EC50 in the data set with Influenza B virus [12] came out at 27 µM. Also, the CC50 in [5] was greater than 250 µM; in data set [6] it was greater than 230 µM. The IC50 in data set [13] is 40 µM.
In the case of `Cc1cc(-c2ccccc2)nc2nc(NC(=O)c3ccccc3)nn12`, in data set [1], the solubility (thermodynamic) at 1 h was found to be 13 µg/mL (≈ 39.5 µM). For the same compound, the Papp at 18 h in data set [2] was 5.49 ×10⁻⁶ cm/s. Moreover, the Activity in data set [3] was 2%. In addition, the Drug metabolism entry in the data set on Liver microsome is “metabolite_notdetected”. Moreover, the EC50 came to 25 µM in the data set on Influenza A virus [4]; 25 µM in the data set on Influenza A virus [7]; 27 µM in [8]; 24 µM in [9]; 25 µM in the data set with Influenza B virus [10]; 36 µM in the data set with Influenza B virus [11]. The EC50 in the data set on Influenza B virus [12] is 34 µM. Moreover, the values for the CC50 in data set [5] and in data set [6] were 196 µM and greater than 250 µM, respectively. In addition, it took 26 µM to reach half-maximal inhibition in [13] (IC50).
Turning to `Cc1cc(-c2ccccc2)n2nc(C(=O)Nc3sc4c(c3C(N)=O)CCCCC4)nc2n1`, the result in the data set with Influenza A virus [14] was inactive. This compound also registered a solubility (thermodynamic) at 1 h in [1] of 13 µg/mL (≈ 29.1 µM). Also, the Papp at 18 h in [2] is 0.61 ×10⁻⁶ cm/s. In [3], the Activity turned out to be 45%. Also, the Drug metabolism entry in the data set on Liver microsome is “metabolite_notdetected”. Further, the EC50 with Influenza A virus [4] worked out at 21 µM; in the data set with Influenza A virus [7], 21 µM; in [8], 23 µM; in [9], 7 µM; in the data set on Influenza B virus [10], 24 µM; in the data set on Influenza B virus [11] it was 17 µM. Besides, the EC50 with Influenza B virus [12] came to 11 µM. Besides, the CC50 in [5] and in [6] was greater than 250 µM each time. Besides, the outcome with Influenza A virus [15], with Influenza A virus [16] and with Influenza A virus [17] was Active. Inhibition in data set [13] was half-maximal at 1.1 µM (IC50).
